Measured values taken from patent US20020128301A1, “Non-nucleoside reverse transcriptase inhibitors” (priority 1998, published 2002).

Assay: Bioavailability: release of the mother compound of Formula P-2 from orally administered prodrugs in rats, plasma assayed by HPLC
Details: oral, propylene glycol vehicle, fasted male Sprague Dawley rats, dose corresponding to […]; released drug (1S,2S)-N-[cis-2-(6-fluoro-2-hydroxy-3-propionylphenyl)cyclopropyl]-N'-[2-(5-cyanopyridyl)]urea measured in plasma
Experimental: At 30, 60, 120, 240 & 360 minutes, 0.2 ml blood were collected, centrifuged and frozen for later analysis. […] Aliquots comprising 40-100 μl of each plasma sample are mixed with an equal volume of acetonitrile (10 seconds, Vibrofex). The sample is centrifuged (2 min, 14000 RPM) and 30 μl the supernatant is injected into an HPLC system, as follows.

For `CCC(=O)c1ccc(F)c([C@@H]2C[C@@H]2NC(=O)Nc2ccc(C#N)cn2)c1OCOC(=O)[C@@H](N)[C@@H](C)CC` (relative stereo) [Example 1, (1S, 2S)-N-{cis-2-[6-fluoro-2-(L-isoleucyloxymethyloxy)-3-propionylphenyl]cyclopropyl}-N′-[2-(5-cyanopyridyl)]urea], the “Bioavailability 0-6 hours” value was 34%.
For `CCC(=O)c1ccc(F)c([C@@H]2C[C@@H]2NC(=O)Nc2ccc(C#N)cn2)c1OCOC(=O)OC(COC(=O)[C@@H](N)C(C)C)COC(=O)[C@@H](N)C(C)C` (relative stereo) [Example 6], the “Bioavailability 0-6 hours” value was 50%.
In the case of `CCC(=O)c1ccc(F)c([C@@H]2C[C@@H]2NC(=O)Nc2ccc(C#N)cn2)c1OC(=O)OCOC(=O)[C@@H](N)C(C)C` (relative stereo) [Example 7, (1S,2S)-N-[cis-2-(6-fluoro-2-(L-valyloxy)methoxycarbonyloxy-3-propionylphenyl)cyclopropyl]-N′-[2-(5-cyanopyridyl)]urea], the “Bioavailability 0-6 hours” value is reported as 70%.
